Measurements published in US6649355B2, “Lipoxygenase proteins and nucleic acids” (priority 1998, dated 2003).

How the values were obtained:
[1] = system: 8S-lipoxygenase expression in mouse skin; assay: Effect of topical phorbol ester on 8S-lipoxygenase expression in mouse skin (activity assay, Northern, Western, immunohistochemistry); format: in vivo; conditions: for induction of 8S-lipoxygenase in skin: black Swiss mixed breed (outbred) pups, dorsal skin, topical
Method: FIG. 9A: Normal-phase HPLC analysis of 8S-lipoxygenase activity in homogenates of back skin of 7-8-day-old black Swiss pups following 24 hr treatment with vehicle (acetone) or phorbol ester ([…]).
Phorbol ester (PMA, 10 nmol) dissolved in […] of acetone was applied topically onto dorsal skin of 6-7-day-old mice. At 21-24 h after PMA-treatment, the mice were euthanized, and epidermis was prepared from the frozen dorsal skin as previously described (Hughes et al. (1991) Biochim. Biophys. Acta 1081:347-354). The frozen epidermis was dropped into guanidinium thiocyanate solution, the lysis buffer from the RNeasy RNA extraction kit (QIAGEN). After a brief sonication using an ultrasonic probe (2 sec, twice), total RNA was extracted according to the manufacturer's instructions. Approximately […] of total RNA was recovered in […] of water. Twenty microliter aliquots were used in […] reactions for first strand cDNA synthesis using an oligo-dT-adaptor primer (Brash et al. (1996) J. Biol. Chem. 271:20949-20957). One microliter aliquots of CDNA were used directly in PCR reactions.
Poly(A)+RNA was prepared from PMA- or acetone-treated frozen dorsal skin using TRI REAGENT® (Molecular Research Center, Inc.) and Oligotex™ (Qiagen) according to the manufacturers' instructions. The poly(A)^+ RNA was electrophoresed in 1% agarose/formaldehyde gel and blotted to a Hybond-H^+ nylon membrane (Amersham). The membrane was hybridized with ^32P-labeled DNA probe (complementary with a 0.6-kb EcoRV/BamHI fragment of mouse epidermal 8S-lipoxygenase) prepared using the Multiprime DNA labeling kit and Rapid-hybridization buffer (Amersham), and then washed according to the manufacturer's specifications. Blots were exposed to Fuji x-ray film at −80° C. Mouse cyclophilin cDNA was used as a house-keeping gene to access loading of RNA.
After quantitation by Bradford assay (Bio-Rad), protein was separated by SDS polyacrylamide gel electrophoresis (SDS-PAGE) and then transferred electrophoretically to Hybond ECL nitrocellulose membranes (Amersham). These were probed using a rabbit polyclonal antibody raised against the human 15-Lox-2. This antibody recognises 15-Lox-2 and the mouse 8S-lipoxygenase, but not the human reticulocyte type of 15S-lipoxygenase, as more fully described below. Donkey anti-rabbit Ig linked with horseradish peroxidase (Amersham) was the secondary antibody. Specifically bound protein was detected by chemiluminescence using the ECL Western blotting detection reagents (Amersham).
The dorsal and tail skin of six to seven (6-7)-day-old mice were treated with acetone or PMA (10 nmol for dorsal skin, 2 nmol for tail skin). After 24 h, the animals were euthanized and the dorsal and tail skin were washed with soap and then rinsed thoroughly with water. […]

[2] = target: T1, mouse 8S-lipoxygenase (8-Lox) (Mus musculus, UniProt O35936); format: biochemical
T1 sequence (O35936 1-677): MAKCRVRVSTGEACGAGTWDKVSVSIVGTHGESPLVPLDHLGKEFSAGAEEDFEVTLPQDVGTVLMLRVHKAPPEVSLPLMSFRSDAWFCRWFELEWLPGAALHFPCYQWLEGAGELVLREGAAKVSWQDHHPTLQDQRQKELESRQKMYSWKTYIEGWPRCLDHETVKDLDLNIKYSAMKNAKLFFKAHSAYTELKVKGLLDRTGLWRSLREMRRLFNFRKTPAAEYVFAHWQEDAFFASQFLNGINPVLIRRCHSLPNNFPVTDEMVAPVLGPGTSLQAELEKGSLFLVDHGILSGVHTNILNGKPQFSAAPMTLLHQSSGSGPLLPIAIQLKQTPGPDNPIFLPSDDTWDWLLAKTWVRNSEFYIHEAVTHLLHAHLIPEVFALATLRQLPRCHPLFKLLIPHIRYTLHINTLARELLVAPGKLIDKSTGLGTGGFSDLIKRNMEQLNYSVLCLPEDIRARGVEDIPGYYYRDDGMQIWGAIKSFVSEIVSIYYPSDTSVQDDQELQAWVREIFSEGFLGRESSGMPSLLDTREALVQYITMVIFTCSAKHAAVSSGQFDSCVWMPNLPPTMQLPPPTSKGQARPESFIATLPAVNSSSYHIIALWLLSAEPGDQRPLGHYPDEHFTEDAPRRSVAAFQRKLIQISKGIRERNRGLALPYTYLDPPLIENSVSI

[3] = target: T2, 15-Lox-2 (second type of human 15S-lipoxygenase) (Homo sapiens, UniProt O15296, Q656R); assay: Lipoxygenase metabolism of 14C substrates by the new 15S-lipoxygenase expressed in HEK 293 cells, HPLC analysis; format: biochemical; conditions: 2 mM added; [14C]arachidonic acid as substrate
T2 construct: Initially, five full length clones were expressed in HEK 293 cells; expressed in transfected cells; host or cells: HEK 293 cells, transient transfection (pCDNA3 or pCR3); sonicated cells incubated with substrate
T2 sequence (O15296 1-676 Q656R): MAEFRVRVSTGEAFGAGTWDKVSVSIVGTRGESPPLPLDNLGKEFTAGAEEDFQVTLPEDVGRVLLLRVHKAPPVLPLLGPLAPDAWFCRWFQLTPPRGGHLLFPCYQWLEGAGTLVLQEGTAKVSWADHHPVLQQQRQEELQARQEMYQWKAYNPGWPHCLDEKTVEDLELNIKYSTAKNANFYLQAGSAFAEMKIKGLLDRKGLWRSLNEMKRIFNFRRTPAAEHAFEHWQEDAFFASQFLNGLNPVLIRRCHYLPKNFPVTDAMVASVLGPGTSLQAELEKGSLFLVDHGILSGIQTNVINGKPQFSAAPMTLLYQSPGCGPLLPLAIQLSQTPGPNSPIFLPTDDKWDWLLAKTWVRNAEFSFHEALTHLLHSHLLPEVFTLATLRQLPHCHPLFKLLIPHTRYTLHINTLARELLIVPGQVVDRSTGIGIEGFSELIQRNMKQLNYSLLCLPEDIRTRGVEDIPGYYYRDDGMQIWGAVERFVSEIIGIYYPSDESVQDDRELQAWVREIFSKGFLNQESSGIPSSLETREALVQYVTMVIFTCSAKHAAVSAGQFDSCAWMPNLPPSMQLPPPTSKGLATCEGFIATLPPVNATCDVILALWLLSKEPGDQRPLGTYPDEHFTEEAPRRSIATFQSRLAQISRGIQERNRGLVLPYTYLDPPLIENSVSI
Text: (§1) The PCR products corresponding to the open reading frame of the cDNA were subcloned into the pCDNA3 vector (Invitrogen), or in some experiments ligated directly into pCR3 (Invitrogen), and expressed by transient transfection in human embryonic kidney (HEK) 293 cells as described (Funk et al. (1996) J. Biol. Chem. 271, 23338-23344).

[4] = target: T3, blood cell 15S-lipoxygenase (15-Lox-1) (Homo sapiens, UniProt P16050); assay: Lipoxygenase metabolism of 14C substrates by the blood cell 15S-lipoxygenase analysed in the same experiments; format: biochemical; conditions: applicants' experiments
T3 construct: expressed in transfected cells
T3 sequence (P16050 1-662): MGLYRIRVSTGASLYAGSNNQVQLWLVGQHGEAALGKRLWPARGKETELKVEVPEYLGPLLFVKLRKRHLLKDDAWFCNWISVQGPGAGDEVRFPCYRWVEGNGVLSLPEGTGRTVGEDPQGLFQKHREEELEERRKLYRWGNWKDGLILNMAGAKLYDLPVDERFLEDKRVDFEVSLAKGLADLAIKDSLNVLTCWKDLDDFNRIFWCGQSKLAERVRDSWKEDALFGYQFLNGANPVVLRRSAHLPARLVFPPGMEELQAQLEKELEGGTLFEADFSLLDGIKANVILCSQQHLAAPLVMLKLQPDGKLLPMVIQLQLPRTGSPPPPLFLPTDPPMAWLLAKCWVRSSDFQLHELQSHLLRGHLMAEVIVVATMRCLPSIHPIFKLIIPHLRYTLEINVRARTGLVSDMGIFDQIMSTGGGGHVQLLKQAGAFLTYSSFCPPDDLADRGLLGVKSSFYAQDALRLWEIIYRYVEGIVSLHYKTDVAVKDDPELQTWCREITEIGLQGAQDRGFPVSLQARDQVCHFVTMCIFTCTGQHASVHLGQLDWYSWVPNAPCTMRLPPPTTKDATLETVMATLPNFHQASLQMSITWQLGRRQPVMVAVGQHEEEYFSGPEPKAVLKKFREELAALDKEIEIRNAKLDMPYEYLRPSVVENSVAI
Text: as §1

[5] = system: peroxisome proliferator-activated receptor, PPAR-a; conditions: cited from earlier work

With `CCCCCCCCCCCCCC(=O)O[C@@H]1[C@@H](C)[C@@]2(O)[C@@H](C=C(CO)C[C@]3(O)C(=O)C(C)=C[C@@H]23)[C@@H]2C(C)(C)[C@]12OC(C)=O` [PMA, Phorbol-12-myristate-13-acetate] the “induction of 8S-lipoxygenase activity in skin” value ([1]; Sencar strain, 6-10-day-old pups, high constitutive activity) was “little extra induction”, the “induction of 8S-lipoxygenase in skin” value ([1]; 24 h) was “strongly induced” and the “induction of 8S-lipoxygenase in skin” value ([1]; 24 h, listed as phorbol ester) was “strong induction”. For the same compound, the “histological response of skin (epidermis)” value ([1]; black Swiss, dorsal and tail skin, topical in acetone, 24 h) was “marked hyperproliferative response”.
In the case of `CCCCC/C=C\C/C=C\C/C=C\C/C=C\CCCC(=O)O` [arachidonic acid], the “added arachidonic acid converted to 8S-HPETE” value [2] is reported as 30-40% and the “product formed from the substrate” value [2] is reported as “exclusively to 8S-hydroperoxyeicosatetraenoic acid”.
For `Nc1ncnc2c1ncn2[C@@H]1O[C@H](COP(=O)(O)OP(=O)(O)OP(=O)(O)O)[C@@H](O)[C@H]1O` [ATP], the “effect of addition to the incubation media on enzymatic activity” value [3] was “no significant effect”.
For `[Ca+2]` [calcium], the “effect of addition to the incubation media on enzymatic activity” value [3] was “no significant effect”.
For `CCCCC/C=C\C/C=C\CCCCCCCC(=O)O` [linoleic acid], the “extent of metabolism compared with arachidonic acid” value [4] was “metabolized more extensively than arachidonic acid” and the “product formed from the substrate” value [2] was “exclusively to 9S-HODE”.
For `CCCCC/C=C\C/C=C\C=C\[C@@H](O)C/C=C\CCCC(=O)O` [8S-HETE], the “activity at PPAR-a” value [5] is listed as “strong activator”.
